Columns and labels:
[1] = tested on: Tregs in KPC-luc tumors; experiment: Targeting of Tregs in KPC-luc PDAC by intravenously injected FAM-iRGD; format: in vivo, mice
Procedure: FIG. 2H is an image showing that intravenously injected FAM-iRGD (green) targets CD4^+ (magenta) Foxp3^+ (red) Tregs in KPC-luc PDAC (white arrowheads). Some iRGD-targeted Foxp3^+ cells were CD4^neg (black arrowheads). Blue=DAPI. Scale bar, 50 μm.
Based on the finding that Tregs in PDAC, but not those in the spleen expressed αv integrins and NPR-1 (the receptors of iRGD), studies were performed to determine whether iRGD selectively targets PDAC-infiltrating Tregs. Intravenously injected FAM-iRGD (green) targets CD4^+ (magenta) Foxp3^+ (red) Tregs in KPC-luc PDAC (See FIG. 2H, white arrowheads). Some iRGD-targeted Foxp3^+ cells were CD4^neg (black arrowheads). Blue, DAPI; scale bar, 50 μm.

[2] = tested on: de novo pancreatic ductal adenocarcinoma (PDAC); experiment: Survival of transgenic KPC mice bearing de novo PDAC under long-term treatment; format: in vivo
Procedure: FIG. 1A is a graph showing the percent survival of transgenic Kras-LSL^[…], p53-LSL^172H, Pdx-1-cre (KPC) mice bearing de novo pancreatic ductal adenocarcinoma (PDAC) treated with gemcitabine (GEM).
FIG. 1 presents data showing that iRGD therapy increases CD8^+ T cells in transgenic PDAC mice. […] We randomized mice to therapy with intraperitoneal (IP) gemcitabine alone (100 mg/kg/injection), intravenous (IV) iRGD alone (100 μg/injection) or gemcitabine co-administered with iRGD. Mice were followed with high resolution ultrasound and manual palpation until at least one tumor nodule of 4-5 mm became both palpable and visible on consecutive ultrasound exams. At this point, the mice were randomized to one of the three treatment arms. Treatment was given every 4 days until the animals were sacrificed for having signs of distress. […] Of note, while there was a difference in median survival favoring the combination (71 days versus 84 days), there was a more striking difference in the tail of the survival curve such that survival at 180 days was 0% for gemcitabine alone versus 40% in the iRGD+gemcitabine group.

Compound | targeting of CD4+ Foxp3+ Tregs in KPC-luc PDAC [1] | survival at 180 days ([2]; 180 days) | median survival ([2]; treatment every 4 days)
FAM-iRGD: fluorescein (FAM)-labeled iRGD | targets | – | –
Nc1ccn([C@@H]2O[C@H](CO)[C@@H](O)C2(F)F)c(=O)n1 [gemcitabine] | – | 0% | 71 days
